# Experimental data reported in PubChem BioAssay AID488788 (Broad Institute, 2010).
# Inconclusive results are not listed. Calls of active or inactive are those of the source. The rule behind the calls is not given here.
# Biological target: CAAX prenyl protease 2 (Saccharomyces cerevisiae (strain ATCC 204508 / S288c)) (UniProt Q03530)
# Experiment: Rce1p protease inhibitors, dose response, biochemical, plate reader, cherry-pick (AID 488788)
# Settings: Rce1p enzyme activity
# Chain of CAAX prenyl protease 2 (Saccharomyces cerevisiae (strain ATCC 204508 / S288c)) (Q03530 whole entry, looked up): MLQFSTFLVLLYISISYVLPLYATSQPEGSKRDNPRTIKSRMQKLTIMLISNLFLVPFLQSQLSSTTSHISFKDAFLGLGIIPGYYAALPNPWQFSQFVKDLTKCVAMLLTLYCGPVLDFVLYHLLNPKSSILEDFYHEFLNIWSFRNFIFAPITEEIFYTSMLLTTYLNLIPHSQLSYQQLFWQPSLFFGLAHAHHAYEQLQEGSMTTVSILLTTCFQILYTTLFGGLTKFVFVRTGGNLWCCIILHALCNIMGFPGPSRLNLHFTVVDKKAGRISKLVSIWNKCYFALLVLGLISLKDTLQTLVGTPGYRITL
row,SMILES,AC50
1,COC(C/C=C\C(=O)[C@H](C)OCc1ccccc1)OC,> 10 µM (inactive)
2,CC1COc2c(N3CCN(C)CC3)c(F)cc3c(=O)c(C(=O)O)cn1c23 (configuration not stated),> 10 µM (inactive)

# Same assay, conditions: Rce1p enzyme activity, at 10 µM (top of the series)
row,SMILES,"activity change, negative = inhibition"
1,Oc1ccc(-c2nc3ccccn3c2NCc2ccco2)cc1,inactive
2,COc1ccc(C2C3=C(CC(C)(C)CC3=O)Nc3n[nH]c(C)c32)cc1 (configuration not stated),inactive
3,CCOC(=O)c1c(C2COc3ccccc3O2)csc1NC(=O)c1ccccc1 (configuration not stated),inactive
4,CN1CCN(C(=S)NC(=O)c2ccccc2Cl)CC1,inactive
5,CCOc1ccc(OCC)c(NC(=O)c2nnn(CC(=O)Nc3cc(C)cc(C)c3)c2N)c1,inactive
6,COc1ccc(-c2cn3ccccc3n2)cc1[N+](=O)[O-],inactive
7,Cc1ccc(S(=O)(=O)CC(=O)N2CCN(c3ccccc3F)CC2)cc1,inactive
8,CCOc1ccc(-n2ccnc(SCC(=O)NC3CCCC3)c2=O)cc1,inactive
9,COc1ccc2[nH]c(C(=O)NCCCn3ccnc3)cc2c1,inactive
10,C/C(CC1(O)C(=O)Nc2ccccc21)=N\O (configuration not stated),inactive
11,CSc1ccc(/C=C/C(=O)OCC(=O)NC(C)C)cc1,inactive
12,CC1=C(C(=O)N2CCOCC2)C(c2ccccc2F)C2=C(CC(C)(C)CC2=O)N1 (configuration not stated),inactive
13,CCc1ccc(NC(=O)c2cnc(N3CCN(c4ccccn4)CC3)c3ccccc23)cc1,inactive
14,COC(=O)Cn1c(CCC(=O)O)ccc1-c1ccccc1,inactive
15,CCOc1ccc(C2C(C#N)=C(N)Oc3c2c(=O)oc2ccccc32)cc1 (configuration not stated),inactive
16,Cc1ccc(-c2cc3cccc[n+]3cc2-c2ccc(C)cc2)cc1,inactive
17,COc1ccc(-c2ccc(-c3nnc(-c4cc(OC)ccc4OC)o3)cc2)cc1,inactive
18,COc1ccc2c3c([nH]c2c1)C(C)=NCC3,inactive
19,COCCN1C(=O)/C(=C/c2ccc(Oc3ccc([N+](=O)[O-])cn3)c(OC)c2)SC1=Nc1ccccc1,inactive
20,COc1ccccc1-c1cc(C(=O)O)c2c(=O)n(C)c(=O)n(Cc3ccccc3)c2n1,inactive
21,CCN1CCN(c2ccc(NC(=O)c3cccc(OCc4ccccc4)c3)cc2)CC1,inactive
22,Cc1cccc(N2C(=O)c3cccc4c(N5CCCCC5)c([N+](=O)[O-])cc(c34)C2=O)c1C,inactive

row,SMILES,"activity change, negative = inhibition"
1,N=C(N)c1ccc(/C=C/c2ccc(C(=N)N)cc2O)cc1,inactive
2,CCC(=O)Nc1cc(-c2nn(CC(=O)N3CCCCC3)c(=O)c3ccccc23)ccc1N1CCOCC1,inactive
3,CC(Oc1ccc2c3c(c(=O)oc2c1)CCCC3)C(=O)NC1CC(C)(C)NC(C)(C)C1 (configuration not stated),inactive
4,CC(C)NCC(O)COCCOc1ccc(Br)cc1 (configuration not stated),inactive
5,Cc1ccc(S(=O)(=O)Oc2ccc(C3C4=C(CCCC4=O)N(CCC(=O)O)C4=C3C(=O)CCC4)cc2Cl)cc1,inactive
6,CC(C)C[C@H](NC(=O)c1nc[nH]c1C(=O)N1CCNCC1)C(=O)OCc1ccccc1,inactive
7,CCn1c(C)nc2c(=O)oc3ccccc3c21,inactive
8,O=C(Nc1ccc(F)cc1)Oc1ccccc1N1CCOCC1,inactive
9,CCN1CCN(CC(O)COc2ccc3c(C)cc(=O)oc3c2)CC1 (configuration not stated),inactive
10,CCOCc1cc(C)[nH]c(=O)c1C#N,inactive
11,O=C1C(Cc2c[nH]c3ccccc23)NC(=S)N1Cc1ccccc1 (configuration not stated),inactive
12,CCCCOC(=O)Nc1nc(C)c(C(=O)OCC)s1,inactive
13,COC(=O)c1sccc1NC(=O)CSc1nnnn1-c1ccccc1C,inactive
14,COc1ccccc1NC(=O)/C(=C\c1cccnc1)NC(=O)c1ccc(C)cc1,inactive
15,O=C(Nc1cccc2ncccc12)c1cccnc1,inactive
16,O=C(C1CCC(=O)N(C2CC2)C1)N1CCN(c2ccccc2Cl)CC1 (configuration not stated),inactive
17,CC(C)CNC(=O)Nc1ccc(F)c(Cl)c1,inactive
18,O=C(Nc1cc(S(=O)(=O)N2CCCCC2)ccc1Cl)c1ccccc1NS(=O)(=O)c1ccc(F)cc1,inactive
19,CC1=NN(c2ccccc2)C(=O)/C1=C\c1ccc(Br)s1,inactive
20,CC(=O)NC(Cc1c[nH]c2ccccc12)C(=O)O (configuration not stated),inactive
21,COc1ccc(OCC(=O)NS(=O)(=O)c2ccc(Cl)cc2)cc1,inactive
22,O=C(COC(=O)c1ccc(S(=O)(=O)N2CCCC2)cc1)NCc1ccccc1,inactive

row,SMILES,"activity change, negative = inhibition"
1,Cc1cc2cc(C#N)c(NCCNC(=S)NCCCN3CCOCC3)nc2cc1C,inactive
2,C/C=C(/C)C(=O)O[C@H]1[C@@H](O)c2c(ccc3ccc(=O)oc23)OC1(C)C,inactive
3,O=C(NCC1CC1)c1ccc(Nc2nc3ccc(Br)cc3[nH]2)cc1,inactive
4,CN1CC(C(=O)c2ccc(Cl)cc2)C(c2ccc(Cl)cc2Cl)C1 (configuration not stated),inactive
5,Cc1ccc(S(=O)(=O)c2cn(C)c3cc(N4CCOCC4)c(F)cc3c2=O)cc1,inactive
6,Cc1c(C)c2ccc(OC(C)C(=O)NCCCN3CCOCC3)c(C)c2oc1=O (configuration not stated),inactive
7,CCC1CCCCN1C(=O)NC(=O)c1ccccc1 (configuration not stated),inactive
8,COC(C[C@@H]1O[C@@H]1C(=O)[C@@H](C)OCc1ccccc1)OC,inactive
9,CCC(=O)Nc1cccc(NC(=S)NC(=O)c2cccs2)c1,inactive
10,CCN(CC)CCCNC(=O)CCc1c(C)n(CC)c2cc(-c3ccccc3OC)nn2c1=O,inactive
11,COCCCNC(=S)NCCNc1nc2cc(C)cc(C)c2cc1C#N,inactive
12,C=CCn1c(N2CCCCCC2)nc2c1c(=O)n(C)c(=O)n2C,inactive
13,Cc1ccc(C(=O)c2c3ccc(C(F)(F)F)cc3[n+]([O-])n2CCCC(N)=O)cc1,inactive
14,CC(C)CC(=O)Nc1ccc2oc(-c3cccnc3)nc2c1,inactive
15,COC(C/C=C/C(=O)[C@H](C)OCc1ccccc1)OC,inactive
16,COc1ccc(CC(=O)OCC(=O)Nc2ccc(Br)cc2)cc1,inactive
17,COc1ccc(-c2cc3ccccc3n2CC(O)CNCCO)cc1 (configuration not stated),inactive
18,COc1cc(-c2c(C#N)c(N)nc3c2c(C)nn3-c2ccc(C)c(C)c2)cc(OC)c1OC,inactive
19,COc1ccc(-c2nc3ncccc3o2)cc1NC(=O)c1ccco1,inactive
20,COC(=O)c1ccc(-c2ccc(CNCC(O)c3ccccc3)o2)cc1 (configuration not stated),inactive
21,Cc1cc(C(=O)N/N=C/c2c3ccccc3cc3ccccc23)n[nH]1,inactive
